In general, chromatographic logP refers to a lipophilicity value derived from retention on a column.

A short description of data set [1]: log P by reversed-phase HPLC, acidic range. Particulars: reversed-phase C18 HPLC column, formic acid in water/acetonitrile. It is filed as physicochemical. On the procedure:
The log P values were determined according to EEC Directive 79/831 Annex V.A8 by HPLC (high-performance liquid chromatography) on a reversed-phase column (C18) using the following methods: ^[a] The log P value is determined by LC-UV measurement in the acidic range using 0.9 ml/1 formic acid in water and 1.0 ml/1 formic acid in acetonitrile as mobile phases (linear gradient from 10% acetonitrile to 95% acetonitrile). Calibration was carried out using a homologous series of straight-chain alkan-2-ones (having 3 to 16 carbon atoms) with known log P values. The values between successive alkanones are determined by linear regression.

For the next data set, the system named is Ctenocephalides felis. Description: Ctenocephalides felis oral test. The class given is in vivo. Particulars: 100 ppm, oral via blood, after 2 days. On the procedure: Ctenocephalides felis—Oral Test
Solvent: dimethyl sulfoxide
To produce a suitable active compound formulation, 10 mg of active compound are mixed with 0.5 ml of dimethyl sulfoxide. Dilution with citrated cattle blood gives the desired concentration.
About 20 unfed adult cat fleas (Ctenocephalides fells) are placed into a chamber which is closed at the top and bottom with gauze. A metal cylinder whose bottom end is closed with parafilm is placed onto the chamber. The cylinder contains the blood/active compound formulation, which can be imbibed by the fleas through the parafilm membrane.
After 2 days, the kill in % is determined. 100% means that all of the fleas have been killed; 0% means that none of the fleas have been killed.

A further data set deals with Spodoptera frugiperda. Put plainly: Spodoptera frugiperda spray test. The class given is in vivo. Particulars: 100 g/ha, corn leaf disks, after 7 days. On the procedure:
Spodoptera frugiperda—Spray Test Solvent: 78.0 parts by weight of acetone • • 1.5 parts by weight of dimethylformamide Emulsifier: alkylaryl polyglycol ether To produce a suitable active compound formulation, 1 part by weight of active compound is dissolved using the stated parts by weight of solvent and made up with water containing an emulsifier concentration of 1000 ppm until the desired concentration is attained. To produce further test concentrations, the formulation is diluted with emulsifier-containing water. Leaf disks of corn (Zea mays) are sprayed with an active compound formulation of the desired concentration and, after drying, populated with caterpillars of the fall armyworm (Spodoptera frugiperda). After 7 days, the efficacy in % is determined. 100% means that all the caterpillars have been killed; 0% means that no caterpillar has been killed.

For another data set, the system named is Phaedon cochleariae. Description: Phaedon cochleariae spray test. It is filed as in vivo. Particulars: 100 g/ha, Chinese cabbage leaf disks, after 7 days. On the procedure:
Phaedon cochleariae—Spray Test
Solvent: 78.0 parts by weight of acetone • • 1.5 parts by weight of dimethylformamide
Emulsifier: alkylaryl polyglycol ether
To produce a suitable active compound formulation, 1 part by weight of active compound is dissolved using the stated parts by weight of solvent and made up with water containing an emulsifier concentration of 1000 ppm until the desired concentration is attained. To produce further test concentrations, the formulation is diluted with emulsifier-containing water.
Disks of Chinese cabbage leaves (Brassica pekinensis) are sprayed with an active compound formulation of the desired concentration and, after drying, populated with larvae of the mustard beetle (Phaedon cochleariae).
After 7 days, the efficacy in % is determined. 100% means that all the beetle larvae have been killed; 0% means that no beetle larvae have been killed.

The test system of data set [2] is Myzus persicae. Description: Myzus persicae oral test. The class given is in vivo. The following applies: 4 ppm, after 5 days. On the procedure: Myzus persicae—Oral Test Solvent: 100 parts by weight of acetone To produce a suitable active compound formulation, 1 part by weight of active compound is dissolved using the specified parts by weight of solvent and made up with water until the desired concentration is attained. 50 μl of the active compound preparation are transferred into microtitre plates and made up to a final volume of 200 μl with 150 μl of IPL41 insect medium (33%+15% sugar). Subsequently, the plates are sealed with parafilm, which a mixed population of green peach aphids (Myzus persicae) within a second microtitre plate is able to puncture and imbibe the solution through. After 5 days, the efficacy in % is determined. 100% means that all the aphids have been killed; 0% means that no aphids have been killed.

Data set [3] deals with Myzus persicae. Put plainly: Myzus persicae spray test (Chinese cabbage leaf disks). It is filed as in vivo. The following applies: 100 g/ha, after 5 days. On the procedure:
Myzus persicae—Spray Test Solvent: 78 parts by weight of acetone • • 1.5 parts by weight of dimethylformamide Emulsifier: alkylaryl polyglycol ether To produce a suitable active compound formulation, 1 part by weight of active compound is dissolved using the stated parts by weight of solvent and made up with water containing an emulsifier concentration of 1000 ppm until the desired concentration is attained. To produce further test concentrations, the formulation is diluted with emulsifier-containing water. Disks of Chinese cabbage leaves (Brassica pekinensis) infested by all stages of the green peach aphid (Myzus persicae) are sprayed with an active compound formulation of the desired concentration. After 5 days, the efficacy in % is determined. 100% means that all the aphids have been killed; 0% means that no aphids have been killed.

Data set [4] concerns Myzus persicae. Description: Myzus persicae spray test (MYZUPE), comparative, bell pepper plants. It is filed as in vivo. The following applies: 144 h, 6 dat (days after treatment), read-out: % Efficacy MYZUPE. On the procedure: Myzus persicae—Spray Test (MYZUPE) Solvent: 14 parts by weight of dimethylformamide Emulsifier: alkylaryl polyglycol ether To produce a suitable active compound formulation, 1 part by weight of active compound is dissolved using the stated parts by weight of solvent and made up with water containing an emulsifier concentration of 1000 ppm until the desired concentration is attained. To produce further test concentrations, the formulation is diluted with emulsifier-containing water. If the addition of ammonium salts or/and penetrants is required, these are each added in a concentration of 1000 ppm to the formulation solution. Bell pepper plants (Capsicum annuum) severely infested with the green peach aphid (Myzus persicae) are treated by spraying with the active compound formulation in the desired concentration. After the desired time, the kill in % is determined. 100% means that all the animals have been killed; 0% means that no animals have been killed.

Data set [5] has as its system Diabrotica balteata. Description: Diabrotica balteata drench test (DIABBA), comparative. The class given is in vivo. The following applies: soil, 192 h, 8 dat (days after treatment), read-out: % Efficacy DIABBA. On the procedure: Diabrotica balteata—Drench Test (DIABBA) Solvent: 7 parts by weight of dimethylformamide Emulsifier: 2 parts by weight of alkylaryl polyglycol ether To produce a suitable active compound preparation, 1 part by weight of active compound is mixed with the specified amounts of solvent and emulsifier, and the concentrate is diluted with water to the desired concentration, it being necessary to include the volume of soil which is drenched in the calculation. It should be ensured that a concentration of 40 ppm of emulsifier in the soil is not exceeded. To produce further test concentrations, water is used for dilution. In each case 5 […] (Zea mays) are sown into pots filled with earth, and the next day the pots are watered with the active compound preparation of the desired concentration. After one day, about 25 L2 larvae of the banded cucumber beetle (Diabrotica balteata) are added. After 8 days, the efficacy in % is determined. 100% means that all 5 plants have germinated and grown; 0% means that none of the plants has emerged.

In data set [6] the test system is Diabrotica balteata. Description: Diabrotica balteata spray test. Particulars: 500 g/ha (=160 μg/cavity), after 7 days. It is filed as in vivo. On the procedure: Diabrotica balteata—Spray Test Solvent: 78 parts by weight of acetone • • 1.5 parts by weight of dimethylformamide Emulsifier: alkylaryl polyglycol ether To produce a suitable active compound formulation, 1 part by weight of active compound is dissolved using the stated parts by weight of solvent and made up with water containing an emulsifier concentration of 1000 ppm until the desired concentration is attained. To produce further test concentrations, the formulation is diluted with emulsifier-containing water. Pre-swollen wheat grains (Triticum aestivum) are incubated in a multiwell plate filled with agar and a little water for one day (5 seed grains per cavity). The germinated wheat grains are sprayed with an active compound formulation of the desired concentration. Subsequently, each cavity is infected with 10-20 beetle larvae of Diabrotica balteata. After 7 days, the efficacy in % is determined. 100% means that all wheat plants have grown as in the untreated, uninfected control; 0% means that no wheat plant has grown.

For a further data set, the system named is Boophilus microplus. Description: Boophilus microplus injection test. The class given is in vivo. The following applies: 20 μg/animal, assessed after 7 days. On the procedure:
Boophilus microplus—Injection Test Solvent: dimethyl sulfoxide To produce a suitable active compound formulation, 10 mg of active compound are mixed with 0.5 ml of solvent and the concentrate is diluted to the desired concentration with solvent. 1 μl of the active compound solution is injected into the abdomen of 5 engorged adult female cattle ticks (Boophilus microplus). The animals are transferred into dishes and kept in a climate-controlled room. Efficacy is assessed after 7 days by laying of fertile eggs. Eggs which are not visibly fertile are stored in a climate-controlled cabinet until the larvae hatch after about 42 days. An efficacy of 100% means that none of the ticks has laid any fertile eggs; 0% means that all the eggs are fertile.

The compound `Cn1c(-c2nn3cc(C4(C#N)CC4)ccc3c2Br)nc2cc(OC(F)(F)F)cnc21` [1-[3-Bromo-2-[3-methyl-6-(trifluoromethoxy)imidazo[4,5-b]pyridin-2-yl]pyrazolo[1,5-a]pyridin-6-yl]cyclopropanecarbonitrile] showed a chromatographic logP in data set [1] of 3.9.
With `CCS(=O)(=O)c1c(-c2nc3cc(OC(F)(F)F)cnc3n2C)nn2cc(C3(C#N)CC3)ccc12` [Example I-1, 1-[3-Ethylsulfonyl-2-[3-methyl-6-(trifluoromethoxy)imidazo[4,5-b]pyridin-2-yl]pyrazolo[1,5-a]pyridin-6-yl]cyclopropanecarbonitrile], in the data set with Ctenocephalides felis, the “efficacy (kill in %)” value is reported as 100%. Besides, the efficacy with Spodoptera frugiperda, in the data set with Phaedon cochleariae, with Myzus persicae [2] and in the data set with Myzus persicae [3] was 100% in each case. The Emax at 0.8 ppm with Myzus persicae [4] was 100%; in the data set with Diabrotica balteata [5], 80%. Also, in data set [1], the chromatographic logP is 3.18.
As to `CCS(=O)(=O)c1c(-c2nc3cc(OC(F)(F)F)ccc3n2C)nn2cc(C3(C#N)CC3)ccc12` [Example I-2, 1-[3-Ethylsulfonyl-2-[1-methyl-5-(trifluoromethoxy)benzimidazol-2-yl]pyrazolo[1,5-a]pyridin-6-yl]cyclopropanecarbonitrile], the efficacy in the data set on Diabrotica balteata [6], in the data set on Spodoptera frugiperda and in the data set with Myzus persicae [2] was 100% each time. The chromatographic logP in data set [1] was 3.29.
`CCS(=O)(=O)c1c(-c2nc3cc4c(cc3n2C)OC(F)(F)O4)nn2cc(C3(C#N)CC3)ccc12` [Example I-3, 1-[2-(2,2-Difluoro-7-methyl-[1,3]dioxolo[4,5-f]benzimidazol-6-yl)-3-ethylsulfonylpyrazolo[1,5-a]pyridin-6-yl]cyclopropanecarbonitrile]: the efficacy in the data set on Diabrotica balteata [6], with Spodoptera frugiperda and in the data set with Myzus persicae [2] was 100% throughout. This compound also came in with a chromatographic logP in data set [1] of 3.18.
Regarding `CCS(=O)(=O)c1c(-c2nc3cc4c(nc3n2C)OC(F)(F)O4)nn2cc(C3(C#N)CC3)ccc12` [Example I-4, 1-[3-Ethylsulfonyl-2-[2,2-difluoro-7-methyl-[1,3]dioxoloimidazo[4,5-b]pyridin-6-yl]pyrazolo[1,5-a]pyridin-6-yl]cyclopropanecarbonitrile], the “efficacy (no laying of fertile eggs)” value in the data set with Boophilus microplus came out at 80%. The “efficacy (kill in %)” value in the data set on Ctenocephalides felis was 100%. Further, the efficacy with Spodoptera frugiperda amounted to 100%; in the data set with Phaedon cochleariae, 100%; with Myzus persicae [2] it was 100%; in the data set with Myzus persicae [3], 90%. The chromatographic logP in data set [1] turned out to be 3.22.
For the compound `CCS(=O)(=O)c1c(-c2nc3cc(OC(F)(F)C(F)(F)F)cnc3n2C)nn2cc(C3(C#N)CC3)ccc12` [Example I-5, 1-[3-Ethylsulfonyl-2-[3-methyl-6-(1,1,2,2,2-pentafluoroethoxy)imidazo[4,5-b]pyridin-2-yl]pyrazolo[1,5-a]pyridin-6-yl]cyclopropanecarbonitrile], the efficacy with Diabrotica balteata [6] and with Spodoptera frugiperda was 100% each time. Besides, the chromatographic logP in data set [1] worked out at 3.76.
Consider `CCS(=O)(=O)c1c(-c2nc3cc(C(F)(F)F)cnc3n2C)nn2cc(C3(C#N)CC3)ccc12` [prior art according to WO2017/155103, reference compound], for which the Emax at 0.8 ppm with Myzus persicae [4] stood at 40%; in the data set with Diabrotica balteata [5] it was 50%.

(Values after US20220033418A1, “HETEROCYCLENE DERIVATIVES AS PEST CONTROL AGENTS” (Bayer Aktiengesellschaft, priority 2018, published 2022).)
